{"source": "patent US20230181524A1", "about": "“PHARMACEUTICAL COMBINATION AND USE THEREOF” (NATURAL MEDICINE INSTITUTE OF ZHEJIANG YANGSHENGTANG CO., …, priority 2020, published 2023)", "key": {"HEK293 cells": {"test_system": "HEK293 cells", "assay": "Cell viability compared with HEK293 cells (specificity)", "assay_type": "cell-based", "details": "in combination with ascorbic acid", "description": "HEK293 cells, HOS human osteosarcoma cells, and 143B human osteosarcoma cells were subcultured in an incubator at 37° C., 5% CO2 using a RPMI-1640 medium containing 10% fetal bovine serum (FBS).\n(§1) 10 μL was taken for counting.\n(5) After 24h of dosing, the medium was discarded. […] The cells were digested for 5 min;"}, "[1]": {"test_system": "HOS human osteosarcoma cells", "assay": "Migration of osteosarcoma cells (scratch lines, photographs at 12h and 24h)", "assay_type": "cell-based", "details": "0.1 μM PKF118-310 in combination with 0.5 mM Vc", "description": "(§2) (1) HOS human osteosarcoma cells and 143B human osteosarcoma cells were subcultured at 37° C., 5% CO2 in an incubator with a RPMI-1640 medium containing 10% fetal bovine serum.\nas §1\n(§3) The diluted cells were plated into a 12-well plate with 1 mL per well, i.e., about 100,000 cells per well.\n(§4) (4) The cells plated in the 12-well plate were cultured to a density of more than 80%. Then, a control group (to which DMSO was added), as well as groups to which 0.1 μM of PKF118-310, 0.5 mM Vc, and a combination of 0.1 μM of PKF118-310 with 0.5 mM sodium ascorbate were respectively added were prepared. Parallel lines were drawn with the tip of a 10 μL pipette at the bottom of the plate.\n(§5) (5) The cells were placed into a 37° C., 5% CO2 incubator for incubation, and observed and recorded by photographs at 12h and 24h."}, "[2]": {"test_system": "143B human osteosarcoma cells", "assay": "Migration of osteosarcoma cells (scratch lines, photographs at 12h and 24h)", "assay_type": "cell-based", "details": "143B cells, 0.1 μM PKF118-310 in combination with 0.5 mM Vc", "description": "as §2, §1, §3, §4, §5"}, "[3]": {"test_system": "HOS human osteosarcoma cells", "assay": "Cell counts of drug combination administration (Trypan Blue), cell viability", "description": "(§6) (1) Cells were plated in a 10 cm culture plate to grow a density of about 90%. The medium was removed, and the adherent cells were washed once with a PBS buffer. 1 mL of trypsin was added, and immediately discarded after mixing well. The cells were placed in the incubator and digested for about 5 min, and then about 10 ml of fresh medium was added. 10 μL was taken for counting.\n(§7) (2) 10 μL of the well-mixed cells were taken and mixed into 10 μL of Trypan Blue solution, and counted.\n(§8) (3) After counting, the cells were diluted to 1×10^5 cells/ml. The diluted cells were mixed well, and plated into a 24-well plate with 500 μL per well, i.e., about 50,000 cells per well.\n(§9) (4) The cells plated in the 24-well plate were cultured for about 24h, and then drugs were added. […]\n(§10) (5) After 24h of dosing, the medium was discarded. About 150 μL of trypsin was added and then discarded. The cells were digested for 5 min;\n(§11) (6) After digestion, equivalent amounts of PBS were added into each well and mixed uniformly. Then, 10 μL/well of Trypan Blue solution was added and mixed uniformly. 10 μL of the well-mixed solution was taken and counted. In accordance with “Cell viability=Cell Count of Test Group/Cell Count of Control Group×100%”, the cell viability of various groups was calculated.\n(§12) The coefficient of drug in interaction (CDI) was used to evaluate the nature of the interaction between the two drugs. The test groups were divided into the control group, the group of A drug, the group of B drug and the group of AB in combination, and used for detecting the cell viability in A, B and AB groups, respectively."}, "[4]": {"test_system": "143B human osteosarcoma cells", "assay": "Cell counts of drug combination administration (Trypan Blue), cell viability", "details": "143B cells", "description": "as §6, §7, §8, §9, §10, §11, §12"}, "[5]": {"test_system": "SKOV3 human ovarian cancer cells", "assay": "cells", "details": "SKOV3 cells", "description": "as §6, §7, §8\n(§13) (4) The cells plated in the 24-well plate were cultured for about 24h, and then drugs were added. Various test groups comprise 5 groups as follows: the single-drug group of PKF118-310 (with a concentration of 0.1 μM), the group of ascorbic acid (with a concentration of 0.5 mM), the group of PKF118-310 (with a concentration of 0.1 μM) in combination with ascorbic acid (with a concentration of 0.5 mM); the control group that is a cell group to which only solvent DMSO is added; and the blank group that is a group to which no cell is added and only solvent (DMSO) is added.\nas §10, §11\n(§14) The inhibitory effect of PKF118-310 on the SKOV3 human ovarian cancer cells and the 3AO human ovarian cancer cells was detected in accordance with the corresponding method of Example 1."}, "[6]": {"test_system": "3AO human ovarian cancer cells", "assay": "cells", "details": "3AO cells", "description": "as §6, §7, §8, §13, §10, §11, §14"}, "143B cells": {"test_system": "143B cells", "assay": "Osteosarcoma tumor model in nude mice (tumor volume, Luciferin fluorescence imaging)", "assay_type": "in vivo, nude mice (BALB/c-nu)", "description": "(1) Tumor preparation in nude mice. 6-8-week-old female nude mice (BALB/c-nu) (purchased from Vital River Laboratory Animal Technology Co., Ltd.) were selected. 143B cells were cultured in vitro to the log phase. The cells were collected and re-suspended in a PBS buffer solution. The collected cells were subcutaneously injected to the mammary glands of nude mice with 5×10^6 143B cells/nude mouse to establish a model of tumor in situ."}, "[7]": {"details": "0.1 μM in combination with 0.5 mM sodium ascorbate"}, "[8]": {"details": "0.3 μM in combination with 0.5 mM sodium ascorbate"}, "[9]": {"details": "0.5 μM in combination with 0.5 mM sodium ascorbate"}}, "note": "“Also recorded” adds a separate entry of the source. Read-outs that look alike come from different tables or passages of the source.", "data": [{"smiles": "Cn1ncnc2c(=O)n(C)c(=O)nc1-2", "note": "[PKF118-310]", "values": [{"measurement": "specificity of inhibition of tumor cell viability as compared with the HEK293 cells", "setting": "HEK293 cells", "value": "can specifically inhibit the cell viability of the 143B cells and the HOS cells; also recorded: can specifically inhibit the activity of the HCT116 cells and the MC38 cells"}, {"measurement": "migration of cells", "setting": "[1]", "value": "significantly inhibit the migration"}, {"measurement": "migration of cells", "setting": "[2]", "value": "significantly inhibit the migration"}, {"measurement": "CDI value (coefficient of drug interaction)", "setting": "[3]; [7]", "value": 0.12}, {"measurement": "cell viability", "setting": "[3]; [7]", "value": 10, "unit": "%"}, {"measurement": "cell viability", "setting": "[3]; single-drug 0.1 μM, 24h", "value": 94, "unit": "%"}, {"measurement": "CDI value", "setting": "[4]; [7]", "value": 0.04}, {"measurement": "cell viability", "setting": "[4]; [7]", "value": 2, "unit": "%"}, {"measurement": "cell viability", "setting": "[4]; single-drug 0.1 μM, 24h", "value": 91, "unit": "%"}, {"measurement": "effect on the body weight of mice", "setting": "PKF118-310 0.7 mg/kg s.c. in combination with ascorbate 1 g/kg i.v. every 3 days", "value": "no effect on the body weight of mice"}, {"measurement": "effect on the body weight of mice", "setting": "alone, PKF118-310 0.7 mg/kg s.c. or ascorbate 1 g/kg i.v. every 3 days", "value": "no effect on the body weight of mice"}, {"measurement": "CDI value", "setting": "[5]; [8]", "value": 0.31}, {"measurement": "cell viability", "setting": "[5]; [8]", "value": 28, "unit": "%"}, {"measurement": "CDI value", "setting": "[5]; [9]", "value": 0.34}, {"measurement": "cell viability", "setting": "[5]; [9]", "value": 20, "unit": "%"}, {"measurement": "cell viability", "setting": "[5]; single-drug 0.3 μM", "value": 94, "unit": "%"}, {"measurement": "cell viability", "setting": "[5]; single-drug 0.5 μM", "value": 61, "unit": "%"}, {"measurement": "CDI value", "setting": "[6]; [7]", "value": 0.35}, {"measurement": "cell viability", "setting": "[6]; [7]", "value": 31, "unit": "%"}, {"measurement": "CDI value", "setting": "[6]; [8]", "value": 0.19}, {"measurement": "cell viability", "setting": "[6]; [8]", "value": 13, "unit": "%"}, {"measurement": "cell viability", "setting": "[6]; 0.05 M in combination with 0.5 mM sodium ascorbate", "value": 58, "unit": "%"}, {"measurement": "CDI value", "setting": "[6]; in combination with 0.5 mM sodium ascorbate", "value": 0.60}, {"measurement": "cell viability", "setting": "[6]; single-drug 0.1 μM", "value": 92, "unit": "%"}, {"measurement": "cell viability", "setting": "[6]; single-drug 0.3 μM", "value": 69, "unit": "%"}, {"measurement": "cell viability", "setting": "[6]; single-drug 0.05 M", "value": 101, "unit": "%"}, {"measurement": "tumor growth, tumor volume with time", "setting": "143B cells; 0.7 mg/kg PKF118-310 s.c. + 1 g/kg ascorbic acid i.v. every 3 days, 6 times, vs blank control and single-drug groups (P<0.001)", "value": "significantly inhibits the tumor growth"}, {"measurement": "tumor volume on Day 21", "setting": "143B cells; 0.7 mg/kg PKF118-310 s.c. + 1 g/kg ascorbic acid i.v., compared with blank control, PKF118-310 and sodium ascorbate groups", "value": "substantially smaller"}, {"measurement": "tumor growth, Luciferin fluorescence imaging", "setting": "143B cells; Day 21, 0.7 mg/kg PKF118-310 s.c. + 1 g/kg ascorbic acid i.v. every 3 days, 6 times, vs blank control and single-drug groups", "value": "significantly inhibits the tumor growth"}]}]}
